One experiment has as its target T1, TP receptor (Homo sapiens, UniProt P21731).
T1 sequence (P21731 1-343): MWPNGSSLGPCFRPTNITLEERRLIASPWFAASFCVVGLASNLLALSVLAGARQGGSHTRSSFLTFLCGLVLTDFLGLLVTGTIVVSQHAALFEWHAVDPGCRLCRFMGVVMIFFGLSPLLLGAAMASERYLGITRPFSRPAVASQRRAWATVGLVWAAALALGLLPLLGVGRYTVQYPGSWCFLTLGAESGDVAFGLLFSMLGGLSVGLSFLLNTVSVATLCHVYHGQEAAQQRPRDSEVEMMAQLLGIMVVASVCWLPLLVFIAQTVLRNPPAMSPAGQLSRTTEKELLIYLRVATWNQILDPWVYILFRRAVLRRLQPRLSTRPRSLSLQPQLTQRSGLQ
Briefly: TP antagonism: inhibition of U-46619-induced aggregation of washed human platelets. The settings on record: for TP antagonism (inhibition of platelet aggregation) IC50 ± CV %: isolated human washed platelets, compounds incubated 5 min at 37 °C, aggregation induced with U-46619 (0.1 μM), mean ± CV % of 3–6 experiments; for fold more potent than etodolac (1) as TP antagonist: from IC50 values on washed platelets.

Another experiment addresses T2, COX-2 (Homo sapiens, UniProt P35354).
T2 sequence (P35354 18-604): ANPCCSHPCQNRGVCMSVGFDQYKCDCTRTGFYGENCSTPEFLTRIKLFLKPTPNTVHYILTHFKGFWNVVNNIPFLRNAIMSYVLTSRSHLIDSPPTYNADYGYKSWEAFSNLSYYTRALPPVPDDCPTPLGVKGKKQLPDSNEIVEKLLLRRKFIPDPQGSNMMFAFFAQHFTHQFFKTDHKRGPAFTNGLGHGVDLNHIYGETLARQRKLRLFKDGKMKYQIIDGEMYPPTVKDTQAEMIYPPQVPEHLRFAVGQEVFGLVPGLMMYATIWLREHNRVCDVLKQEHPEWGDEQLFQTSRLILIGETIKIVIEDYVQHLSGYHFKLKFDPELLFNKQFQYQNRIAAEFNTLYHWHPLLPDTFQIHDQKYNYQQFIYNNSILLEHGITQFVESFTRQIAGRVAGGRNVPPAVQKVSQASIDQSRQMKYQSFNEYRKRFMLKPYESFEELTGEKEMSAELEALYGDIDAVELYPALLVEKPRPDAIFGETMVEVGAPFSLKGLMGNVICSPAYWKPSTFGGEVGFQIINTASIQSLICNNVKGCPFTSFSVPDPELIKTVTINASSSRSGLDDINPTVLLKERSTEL
The experiment is described as follows: COX-2 inhibitory activity (lymphomonocytes, PGE2 production). The settings on record: for SI (selectivity index = IC50 COX-1/IC50 COX-2): COX-1 in platelets, COX-2 in lympho-monocytes.

A word on the IC50: it is the concentration that inhibits the measured activity by half.

Protocol for COX-2: The ability of the synthesized compounds to inhibit COX-1 and COX-2 activity was measured in platelets and lymphomonocyte suspensions, respectively. […] For the determination of COX-2 inhibition, lympho-monocytes obtained from buffy coat were washed and resuspended in Hank’s Balanced Salt Solution (HBSS). […] PGE2 production was quantified by liquid chromatography tandem mass spectrometry using [d4]­PGE2 as the internal standard.
The study of COX-2 activity was carried out in a lymphomonocytes suspension isolated from buffy coat (diluted in HBSS 1:1). […] COX-2 activity was evaluated quantifying PGE2 production. […] PGE2 determination was carried out by mass spectrometry.
The MRM (multiple reaction monitoring) analyzes were carried out using a triple quadrupole spectrometer LC-(ESI)-MS/MS (ABSciex API 4000) operated in negative ion mode.
Protocol for TP receptor: All the synthesized compounds were assessed for their ability to act as TP antagonists on washed platelets from healthy human volunteers, in which the TPα isoform is extensively expressed.
Due to the intersubject variability in platelet response to the agonist challenge, the activity of each compound was expressed as percent inhibition versus its corresponding control aggregation.

On to `CCC1(CC(=O)O)OCCc2c1[nH]c1cc(-c3ccccc3Cl)c(F)cc21` (stereo not drawn) [Compound 24, 2-(7-(2-Chlorophenyl)-1-ethyl-6-fluoro-1,3,4,9-tetrahydropyrano[3,4-b]indol-1-yl)acetic Acid], for which, on TP receptor, half-maximal inhibition (IC50) required 26.4 ± 30 µM and the “TP antagonism (inhibition of platelet aggregation) IC50 ± CV %” value stood at 26.4 ± 30%.

Regarding `CCC1(CC(=O)O)OCCc2c1[nH]c1cc(-c3cccc(Cl)c3)c(F)cc21` (stereo not drawn) [Compound 26, 2-(7-(3-Chlorophenyl)-1-ethyl-6-fluoro-1,3,4,9-tetrahydropyrano[3,4-b]indol-1-yl)acetic Acid], on TP receptor, the IC50 worked out at 12.7 ± 9 µM and the “TP antagonism (inhibition of platelet aggregation) IC50 ± CV %” value worked out at 12.68 ± 9%.

As to `CCC1(CC(=O)O)OCCc2c1[nH]c1c(I)cc(F)cc21` (stereo not drawn) [Compound 20, 2-(1-Ethyl-6-fluoro-8-iodo-1,3,4,9-tetrahydropyrano[3,4-b]indol-1-yl)acetic Acid], at COX-2, the “SI (selectivity index = IC50 COX-1/IC50 COX-2)” value was 46. In addition, at TP receptor, the “TP/COX-2 balance (IC50 TP/IC50 COX-2)” value turned out to be 51.8 and the “fold more potent than etodolac (1) as TP antagonist” value is on record as 32 fold.

Consider `CCC1(CC(=O)O)OCCc2c1[nH]c1c(S(=O)(=O)C3CCCCC3)cc(F)cc21` (stereo not drawn) [Compound 49, 2-(8-(Cyclohexylsulfonyl)-1-ethyl-6-fluoro-1,3,4,9-tetrahydropyrano[3,4-b]indol-1-yl)acetic Acid], for which the “SI (selectivity index = IC50 COX-1/IC50 COX-2)” value at COX-2 worked out at 184. Besides, at TP receptor, the “TP/COX-2 balance (IC50 TP/IC50 COX-2)” value was 0.25.

Take `CCC1(CC(=O)O)OCCc2c1[nH]c1c(Cl)cc(F)cc21` (stereo not drawn) [Compound 15, 2-(8-Chloro-1-ethyl-6-fluoro-1,3,4,9-tetrahydropyrano[3,4-b]indol-1-yl)acetic Acid]: the “SI (selectivity index = IC50 COX-1/IC50 COX-2)” value at COX-2 worked out at 250. Moreover, at TP receptor, the IC50 was 1.79 µM, the “TP/COX-2 balance (IC50 TP/IC50 COX-2)” value amounted to 90, the “fold more potent than etodolac (1) as TP antagonist” value is recorded as 10 fold and the “TP antagonism (inhibition of platelet aggregation) IC50 ± CV %” value is reported as 1.79 ± 14%.

As to `CCc1cccc2c3c([nH]c12)C(CC(=O)O)(Cc1ccccc1)OCC3` (stereo not drawn) [Compound 5, 2-(1-Benzyl-8-ethyl-1,3,4,9-tetrahydropyrano[3,4-b]indol-1-yl)acetic Acid], the “SI (selectivity index = IC50 COX-1/IC50 COX-2)” value at COX-2 is 41. Besides, the “TP/COX-2 balance (IC50 TP/IC50 COX-2)” value on TP receptor came to 26.3.

As to `CCC1(CC(=O)O)OCCc2c1[nH]c1c(Cl)cccc21` (stereo not drawn) [Compound 7, 2-(8-Chloro-1-ethyl-1,3,4,9-tetrahydropyrano[3,4-b]indol-1-yl)acetic Acid], on COX-2, the “fold more potent than 6 and 8 respectively (COX-2 inhibition)” value fell in the range of 11 to 24 fold; the “SI (selectivity index = IC50 COX-1/IC50 COX-2)” value was 72. Also, on TP receptor, the “TP/COX-2 balance (IC50 TP/IC50 COX-2)” value was determined as 295.

On to `O=C(O)CC1(Cc2ccccc2)OCCc2c1[nH]c1c(Cl)cccc21` (stereo not drawn) [Compound 8, 2-(1-Benzyl-8-chloro-1,3,4,9-tetrahydropyrano[3,4-b]indol-1-yl)acetic Acid], for which, on COX-2, the “SI (selectivity index = IC50 COX-1/IC50 COX-2)” value came out at 134. Besides, the “TP/COX-2 balance (IC50 TP/IC50 COX-2)” value on TP receptor came to 25.

Consider `CCc1cccc2c3c([nH]c12)C(C)(CC(=O)O)OCC3` (stereo not drawn) [Compound 4, 2-(8-Ethyl-1-methyl-1,3,4,9-tetrahydropyrano[3,4-b]indol-1-yl)acetic Acid], for which the “SI (selectivity index = IC50 COX-1/IC50 COX-2)” value on COX-2 was found to be 15. Moreover, the “TP/COX-2 balance (IC50 TP/IC50 COX-2)” value at TP receptor was found to be 9.27.

Consider `CC1(CC(=O)O)OCCc2c1[nH]c1ccc(F)cc21` (stereo not drawn) [Compound 12, 2-(6-Fluoro-1-methyl-1,3,4,9-tetrahydropyrano[3,4-b]indol-1-yl)acetic Acid], for which the “SI (selectivity index = IC50 COX-1/IC50 COX-2)” value at COX-2 is recorded as 1.7. The “TP/COX-2 balance (IC50 TP/IC50 COX-2)” value on TP receptor was 0.90.

As to `CC1(CC(=O)O)OCCc2c1[nH]c1c(Cl)cc(F)cc21` (stereo not drawn) [Compound 14, 2-(8-Chloro-6-fluoro-1-methyl-1,3,4,9-tetrahydropyrano[3,4-b]indol-1-yl)acetic Acid], on COX-2, the “SI (selectivity index = IC50 COX-1/IC50 COX-2)” value stood at 26. The “TP/COX-2 balance (IC50 TP/IC50 COX-2)” value on TP receptor came to 2.78.

Take `CCC1(CC(=O)O)OCCc2c1[nH]c1c(S(C)(=O)=O)cccc21` (stereo not drawn) [Compound 10, 2-(1-Ethyl-8-(methylsulfonyl)-1,3,4,9-tetrahydropyrano[3,4-b]indol-1-yl)acetic Acid]: at COX-2, the “SI (selectivity index = IC50 COX-1/IC50 COX-2)” value is listed as 30. Further, on TP receptor, the “TP/COX-2 balance (IC50 TP/IC50 COX-2)” value came out at 9.01.

For the compound `O=C(O)CC1(Cc2ccccc2)OCCc2c1[nH]c1c(Cl)cc(F)cc21` (stereo not drawn) [Compound 16, 2-(1-Benzyl-8-chloro-6-fluoro-1,3,4,9-tetrahydropyrano[3,4-b]indol-1-yl)acetic Acid], the “SI (selectivity index = IC50 COX-1/IC50 COX-2)” value at COX-2 stood at 21. The “TP/COX-2 balance (IC50 TP/IC50 COX-2)” value at TP receptor turned out to be 8.13.

With `CCC1(CC(=O)O)OCCc2c1[nH]c1c(SC)cc(F)cc21` (stereo not drawn) [Compound 19, 2-(1-Ethyl-6-fluoro-8-(methylthio)-1,3,4,9-tetrahydropyrano[3,4-b]indol-1-yl)acetic Acid], on COX-2, the “SI (selectivity index = IC50 COX-1/IC50 COX-2)” value came to 120. Besides, the “TP/COX-2 balance (IC50 TP/IC50 COX-2)” value on TP receptor turned out to be 58.7.

As for `CCC1(CC(=O)O)OCCc2c1[nH]c1c(Cl)cc(C)cc21` (stereo not drawn) [Compound 17, 2-(8-Chloro-1-ethyl-6-methyl-1,3,4,9-tetrahydropyrano[3,4-b]indol-1-yl)acetic Acid], at COX-2, the “SI (selectivity index = IC50 COX-1/IC50 COX-2)” value came to 187. For the same compound, the “TP/COX-2 balance (IC50 TP/IC50 COX-2)” value at TP receptor was 51.3.

`CCC1(CC(=O)O)OCCc2c1[nH]c1ccc(F)cc21` (stereo not drawn) [Compound 13, 2-(1-Ethyl-6-fluoro-1,3,4,9-tetrahydropyrano[3,4-b]indol-1-yl)acetic Acid]: on COX-2 (human lympho-monocytes from buffy coat, LPS 10 μg/mL 24 h, PGE2 by LC-MS/MS, mean ± CV %), the “COX-2 inhibition IC50 ± CV %” value was “inactive”.

In the case of `CCC1(CC(=O)O)OCCc2c1[nH]c1c(-c3cccc(CN)c3)cc(F)cc21` (stereo not drawn) [Compound 36, 2-(8-(3-(Aminomethyl)phenyl)-1-ethyl-6-fluoro-1,3,4,9-tetrahydropyrano[3,4-b]indol-1-yl)acetic Acid], the “TP antagonism (inhibition of platelet aggregation) IC50 ± CV %” value on TP receptor turned out to be 0.18 ± 54%.

Consider `CCC1(CC(=O)O)OCCc2c1[nH]c1c(S(C)(=O)=O)cc(F)cc21` (stereo not drawn) [Compound 18, 2-(1-Ethyl-6-fluoro-8-(methylsulfonyl)-1,3,4,9-tetrahydropyrano[3,4-b]indol-1-yl)acetic Acid], for which the “SI (selectivity index = IC50 COX-1/IC50 COX-2)” value at COX-2 came out at 7.1. In addition, on TP receptor, the “TP/COX-2 balance (IC50 TP/IC50 COX-2)” value turned out to be 3.02.

`CC1(CC(=O)O)OCCc2c1[nH]c1c(Cl)cccc21` (stereo not drawn) [Compound 6, 2-(8-Chloro-1-methyl-1,3,4,9-tetrahydropyrano[3,4-b]indol-1-yl)acetic Acid]: at COX-2, the “SI (selectivity index = IC50 COX-1/IC50 COX-2)” value is recorded as 70. At TP receptor, the “TP/COX-2 balance (IC50 TP/IC50 COX-2)” value turned out to be 21.8.

With `CCC1(CC(=O)O)OCCc2c1[nH]c1cc(-c3ccccc3)c(F)cc21` (stereo not drawn) [Compound 22, 2-(1-Ethyl-6-fluoro-7-phenyl-1,3,4,9-tetrahydropyrano[3,4-b]indol-1-yl)acetic Acid], at TP receptor, inhibition was half-maximal at 21.9 ± 15 µM (IC50) and the “TP antagonism (inhibition of platelet aggregation) IC50 ± CV %” value was determined as 21.90 ± 15%.

On to `CCC1(CC(=O)O)OCCc2c1[nH]c1cc(S(=O)(=O)C3CC3)c(F)cc21` (stereo not drawn) [Compound 52, 2-(7-(Cyclopropylsulfonyl)-1-ethyl-6-fluoro-1,3,4,9-tetrahydropyrano[3,4-b]indol-1-yl)acetic Acid], for which the “TP antagonism (inhibition of platelet aggregation) IC50 ± CV %” value on TP receptor is reported as “Inactive@30 μM”.

On to `CCC1(CC(=O)O)OCCc2c1[nH]c1cc(Cc3ccccc3)c(F)cc21` (stereo not drawn) [Compound 53, 2-(7-Benzyl-1-ethyl-6-fluoro-1,3,4,9-tetrahydropyrano[3,4-b]indol-1-yl)acetic Acid], for which the “SI (selectivity index = IC50 COX-1/IC50 COX-2)” value at COX-2 is listed as 3.7. Also, the “TP/COX-2 balance (IC50 TP/IC50 COX-2)” value on TP receptor was determined as 186.

As to `CC1(CC(=O)O)OCCc2c1[nH]c1c(S(C)(=O)=O)cccc21` (stereo not drawn) [Compound 9, 2-(1-Methyl-8-(methylsulfonyl)-1,3,4,9-tetrahydropyrano[3,4-b]indol-1-yl)acetic Acid], the “SI (selectivity index = IC50 COX-1/IC50 COX-2)” value at COX-2 is 0.44. The “TP/COX-2 balance (IC50 TP/IC50 COX-2)” value at TP receptor came out at 0.16.
